In patent US20030176445A1, “Substituted 1,4-dihydropyridine compounds as bradykinin antagonists” (Pfizer Inc., priority 1999, published 2003):
Where a name gives a salt, the structure may show the parent alone.

melting point	Compound
174 to 177 °C (dec.)	CCCCC1(O)C2CCC1CC(N1CCN(C(=O)CC3=C(C(=O)OC)C(c4c(Cl)cccc4Cl)C(C(=O)OC)=C(CCc4nccs4)N3)CC1)C2 (stereo not drawn) (as salt: hydrochloride) [Example 6, Dimethyl 4-(2,6-dichlorophenyl)-2-[2-[4-(8-butyl-8-hydroxybicyclo[3.2.1]oct-3-yl)-1-piperazinyl]-2-oxoethyl]-6-[2-(1,3-thiazol-2-yl)ethyl]-1,4-dihydro-3,5-pyridinedicarboxylate]
178 to 180 °C (dec.)	COC(=O)C1=C(CCc2nccs2)NC(CC(=O)N2CCN(C3CC4CCC(C3)C4(O)C(C)C)CC2)=C(C(=O)OC)C1c1c(Cl)cccc1Cl (stereo not drawn) (as salt: hydrochloride) [Example 7, Dimethyl 4-(2,6-dichlorophenyl)-2-[2-[4-(8-hydroxy-8-isopropylbicyclo[3.2.1]oct-3-yl)-1-piperazinyl]-2-oxoethyl]-6-[2-(1,3-thiazol-2-yl)ethyl]-1,4-dihydro-3,5-pyridinedicarboxylate]
214 to 220 °C (dec.)	COC(=O)C1=C(CCc2nccs2)NC(CC(=O)N2CCN(C3CC4CC(=O)CC4C3)CC2)=C(C(=O)OC)C1c1c(Cl)cccc1Cl (stereo not drawn) (as salt: hydrochloride) [Example 10, Dimethyl 4-(2,6-dichlorophenyl)-2-[2-oxo-2-[4-(5-oxooctahydro-2-pentalenyl)-1-piperazinyl]ethyl]-6-(2-(1,3-thiazol-2-yl)ethyl)-1,4-dihydro-3,5-pyridinedicarboxylate]
